Experimental data published in patent publication US20080119548A1, “Control Of Feeding Behavior By Changing Neuronal Energy Balance” (priority 2004, published 2008).

Legend:
BALB/c male mice = experiment: Measurement of food intake after i.c.v. or i.p. injection; format: in vivo
Description: Male BALB/c mice (7-9 weeks) were purchased from Charles River Laboratories (and housed in a controlled-light (12 hr light/12 hr dark cycle) environment (lights on 0200-1400 h) and allowed ad libitum access to standard laboratory chow and water. For fasting, food was withdrawn from cage at the onset of the dark cycle for 24 hr, but ad libitum access to water was allowed.
(§1) Mice were implanted with permanent stainless steel cannulae into the lateral ventricle of the brain 0.6 mm caudal to Bregma, 1.2 mm lateral to the midline, and sunk to a depth of 2.2 mm below the surface of the skull. Implanted mice were housed in individual cages and utilized for i.c.v. and i.p. injections as indicated. C75 dissolved in RPMI1640 (Gibco-BRL), AICAR (Toronto Research Chemicals Inc) or compound C (46) (FASgen, Inc.) in saline was injected i.c.v., such that desired dose could be administered in a volume of 2.5 μl, while control groups received vehicle only. Injections were done immediately preceding dark onset and food intake measurements were taken at 1 hr (0-1 hr interval), 3 hr (1-3 hr interval), and 24 hr (3-24 hr interval) after dark onset. C75 i.p./AICAR i.c.v. treatment groups were i.p. injected with 5 mg/kg bodyweight C75 dissolved in […] of glucose-free RPMI 1 hr before the dark onset, followed by 3 μg/2.5 μl saline i.c.v. AICAR immediately preceding the dark onset. Control groups received 200 μl of glucose free RPMI 1 hr before lights off and 2.5 μl of saline. Administration of i.p. compound C (10 or 30 mg/kg bodyweight) or C75 (10 mg/kg bodyweight) was followed by food intake measurement at the same times indicated.

[1] = Changes in bodyweight 24 hr after i.c.v. injection; format: in vivo, mice; settings: C75 10 μg i.c.v.
Description: as §1, with “(d) Changes in bodyweight 24 hr after i.c.v. injection of C75, AICAR or compound C (n=4-10). Mice” for “Mice”, “[…],” for “C (46) (FASgen,”, “[…].” for “C75 i.p./AICAR i.c.v.”

[2] = tested on: primary hypothalamic neurons; experiment: ATP measurement in primary hypothalamic neuron cultures; format: cell-based, Sprague-Dawley rats
Description: Hypothalami were dissected from E17 Sprague-Dawley rats (Harlan), and dissociated by trypsin (0.125%)-DNA (0.001%) solution and trituration as described by Landree, et al., J. Biol. Chem., 279, 3817-3827. Cells were plated at 6×10^4 on poly-D-lysine coated 96 well plates (Corning Inc.) in neurobasal medium supplemented with B27, 0.5 mM L-glutamine, 1% penicillin-streptomycin (Gibco-BRL). To limit nonneuronal cell proliferation, cells were treated with cytosine arabinoside furanoside (1 μM) on day 4 after plating and 6-8 days-old cells were assayed for ATP. Hypothalamic neurons were lysed in TE (100 mM Tris-HCl, pH 7.4, 4 mM DTA), and ATP levels were measured within the linear range using the ATP BioLuminescence Kit CLSII (Roche) by following the manufacture's recommendation. Data were analyzed by a Perkin-Elmer Victor^2 1420.

NPY mRNA = experiment: In situ hybridization of NPY in the arcuate nucleus; format: in vivo; settings: C75-treated (24 hr) mice
Description: Anti-sense DIG-labeled NPY riboprobe was generated from a plasmid containing the NPY gene (XM004941). […] For double fluorescent in situ hybridization, DIG-labeled riboprobe was generated from plasmid containing AMPKα2 gene (pEBGα2, a gift from L. A. Witters) for AMPKα2 (FITC) and biotin-labeled riboprobe was used for NPY (Texas Red). Sheep FITC-conjugated anti-DIG antibody (1:50, Roche) was incubated in TNB buffer (100 mM Tris-HCl pH 7.5, 150 mM NaCl, and 0.5% blocking reagent) for FITC detection. Streptavidin-Texas Red (1:50, Amersham Pharmacia), rabbit anti-Texas Red antibody (1:50, Molecular Probes), goat biotin-conjugated anti-rabbit IgG antibody (1:50, Santa Cruz Biotechnology) and streptavidin-Texas Red (1:30) were incubated serially in TNB buffer for Texas Red detection.
Images of in situ hybridization and immunohistochemistry were visualized using an Axiocam HRc digital camera (Carl Zeiss) and images were acquired using Improvision Openlab software, and quantified by NIH Image program (Macro).

pCREB = experiment: Immunohistochemistry of pCREB in the arcuate nucleus; format: in vivo, mice; settings: C75-treated (24 hr) mice
Description: Free-floating sections were blocked in PBS containing 5% goat serum, 0.1% BSA, 0.05% Triton-X100, 1 mM NaF for 1 hr at room temperature and incubated with anti-phospho-AMPKα (α1 and α2) antibody (1:100) or anti-phospho-CREB antibody (1:500, Cell Signaling) in PBS containing 1% goat serum, 0.1% BSA, 0.05% Triton-X100, 1 mM NaF overnight at 4° C. Signal was visualized by Vectastain ABC kit (Vector). Images of in situ hybridization and immunohistochemistry were visualized using an Axiocam HRc digital camera (Carl Zeiss) and images were acquired using Improvision Openlab software, and quantified by NIH Image program (Macro).

C=C1C(=O)OC(CCCCCCCC)C1C(=O)O (stereo not shown) [C75]
reduction in food intake over 24 hr (BALB/c male mice; C75 5 mg i.c.v., p<0.05): 20.3%
food intake at 1 hr, % of control (RPMI/saline) (BALB/c male mice; C75 5 mg/kg bodyweight i.p. 1 hr before dark onset, saline i.c.v., p<0.01): 37.5 % of control
reduction in food intake over 24 hr (BALB/c male mice; C75 10 mg i.c.v., p<0.01): 37.7%
food intake, % of control (BALB/c male mice; C75 10 mg/kg bodyweight i.p., 0-1 hr): 8.3 % of control
food intake, % of control (BALB/c male mice; C75 10 mg/kg bodyweight i.p., 1-3 hr): 23.3 % of control
food intake, % of control (BALB/c male mice; C75 10 mg/kg bodyweight i.p., 3-24 hr): 30.1 % of control
total 24 hr-food consumption, % of control (BALB/c male mice; C75 10 mg/kg bodyweight i.p., total 24 hr, p<0.001): 26.3 % of control
food intake during the 1-3 and 3-24 hr time intervals (BALB/c male mice; C75 i.c.v., dose-dependent): significantly reduced food intake
bodyweight [1]: reduction in body weight
neuronal ATP levels, % of control ([2]; 40 mg/ml C75, 30 min): 118 % of control
neuronal ATP levels, % of control ([2]; 40 mg/ml C75, 2 hr): 128 % of control
NPY mRNA expression in the arcuate nucleus, % of control (NPY mRNA): 66 % of control
level of pCREB in the arcuate nucleus, % of control (pCREB): 39 % of control
